Test results: paper PMC6090075 (Acta Pharmaceutica Sinica. B, 2017)

Biological target: low-density lipoprotein receptor (LDLR)-related protein 6 (LRP6) (Homo sapiens, UniProt O75581)
Assay: SPR on immobilized recombinant LRP6
Format: binding

low-density lipoprotein receptor (LDLR)-related protein 6 (LRP6), sequence (O75581 20-1613): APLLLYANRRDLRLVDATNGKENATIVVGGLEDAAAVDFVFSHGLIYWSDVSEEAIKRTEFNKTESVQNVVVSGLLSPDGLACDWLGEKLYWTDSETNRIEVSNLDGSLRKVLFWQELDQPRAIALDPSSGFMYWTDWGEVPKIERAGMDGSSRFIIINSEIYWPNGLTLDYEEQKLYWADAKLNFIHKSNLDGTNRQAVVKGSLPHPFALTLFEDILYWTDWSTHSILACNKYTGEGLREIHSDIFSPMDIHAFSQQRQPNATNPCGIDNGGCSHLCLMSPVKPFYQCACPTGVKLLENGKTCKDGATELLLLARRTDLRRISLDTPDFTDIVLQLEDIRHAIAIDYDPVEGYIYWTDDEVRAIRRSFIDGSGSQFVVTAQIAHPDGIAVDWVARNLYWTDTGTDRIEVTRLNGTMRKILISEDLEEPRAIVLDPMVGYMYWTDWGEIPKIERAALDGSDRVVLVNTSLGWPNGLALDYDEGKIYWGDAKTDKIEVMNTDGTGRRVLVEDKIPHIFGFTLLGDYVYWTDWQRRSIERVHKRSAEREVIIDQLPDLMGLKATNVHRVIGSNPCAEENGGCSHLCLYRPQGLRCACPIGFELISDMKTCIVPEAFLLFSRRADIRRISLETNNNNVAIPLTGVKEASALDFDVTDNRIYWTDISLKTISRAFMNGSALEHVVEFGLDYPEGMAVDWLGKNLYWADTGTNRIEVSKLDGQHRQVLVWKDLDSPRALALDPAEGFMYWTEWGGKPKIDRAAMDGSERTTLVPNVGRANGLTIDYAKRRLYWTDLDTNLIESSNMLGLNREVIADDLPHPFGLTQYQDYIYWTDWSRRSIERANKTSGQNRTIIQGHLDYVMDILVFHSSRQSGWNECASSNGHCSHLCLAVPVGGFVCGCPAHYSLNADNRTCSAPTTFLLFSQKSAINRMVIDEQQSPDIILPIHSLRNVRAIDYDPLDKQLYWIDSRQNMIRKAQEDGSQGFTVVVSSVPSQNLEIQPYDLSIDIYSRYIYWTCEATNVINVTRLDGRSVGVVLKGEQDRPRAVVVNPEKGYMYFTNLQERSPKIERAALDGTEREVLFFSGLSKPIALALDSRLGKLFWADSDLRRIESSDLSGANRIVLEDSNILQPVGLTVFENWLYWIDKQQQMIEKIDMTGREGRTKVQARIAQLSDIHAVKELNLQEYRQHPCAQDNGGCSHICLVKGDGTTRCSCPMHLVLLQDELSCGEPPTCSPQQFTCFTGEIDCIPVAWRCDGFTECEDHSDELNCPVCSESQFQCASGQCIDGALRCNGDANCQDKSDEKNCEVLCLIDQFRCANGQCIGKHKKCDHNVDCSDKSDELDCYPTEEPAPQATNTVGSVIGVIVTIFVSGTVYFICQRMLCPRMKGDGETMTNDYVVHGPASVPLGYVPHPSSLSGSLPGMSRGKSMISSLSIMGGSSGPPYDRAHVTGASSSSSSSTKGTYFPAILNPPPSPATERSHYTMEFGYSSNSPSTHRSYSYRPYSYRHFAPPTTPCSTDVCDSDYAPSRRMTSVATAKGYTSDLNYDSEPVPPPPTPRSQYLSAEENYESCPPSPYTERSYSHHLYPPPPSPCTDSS

Kd: 5.65 µM
SMILES: C=CCSSC[C@H](N)C(=O)O [SAMC, S-allylmercaptocysteine]
